The nature of series [1]: Stability in simulated intestinal fluid, MIC read-out. The format is in vitro ADME. Here is the method: The stability of peptide PN7 in SGF, SIF, and 25% or 50% mouse serum was carried out as previously described. A final concentration of 1280 μg/mL PN7 was prepared and incubated at 37 °C and then diluted twice. The MIC was determined.
Another series has as its system S. aureus CICC 10473. Description: MIC, microtiter broth dilution. The format is cell-based, Staphylococcus aureus. As to conditions: MHB, 10^5 CFUs/mL, 16–18 h at 37 °C. On the procedure: (§1) The MIC value of PN7 against bacteria was determined by the microtiter broth dilution method. Briefly, bacteria grown to the exponential phase were diluted into MHB; subsequently, 90 μL of bacterial suspension (10^5 CFUs/mL) was mixed with 10 μL of different concentrations of PN7 in a sterilized 96-well microtiter plate (Nunc). MIC values were recorded after incubation for 16–18 h at 37 °C based on the lowest concentrations of peptides in which no visible bacterial growth was observed.
(Broth dilution looks for growth in wells or tubes with falling amounts of substance.)

The next series relates to E. coli CVCC 1515. Put plainly: MIC, microtiter broth dilution. The format is cell-based, Escherichia coli. To be noted: MHB, 10^5 CFUs/mL, 16–18 h at 37 °C. On the procedure: as §1
For another series, the system named is E. coli O157. Put plainly: MIC, microtiter broth dilution. The format is cell-based, Escherichia coli. As to conditions: MHB, 10^5 CFUs/mL, 16–18 h at 37 °C. Here is the method:
as §1

The subject of the next series is E. coli ATCC 25922. Description: MIC, microtiter broth dilution. The format is cell-based, Escherichia coli. As to conditions: MHB, 10^5 CFUs/mL, 16–18 h at 37 °C. On the procedure: as §1
The next series relates to S. aureus CVCC 546. The format is cell-based, Staphylococcus aureus. On the procedure:
(§2) The experimental operation of the expression of the Plectasin variant in P. pastoris in well plates, shaking flasks, and 5 L level fermentation was performed as referenced in previous studies. Candidates were identified through three different levels of screening. Firstly, a large number of transformants were screened through well plates to induce expression and determined by the inhibition zone assay (against S. aureus ATCC 43300). Secondly, the transformants with obvious inhibition zones were sequenced to obtain protein sequence information, then induced expression at the shake level. The supernatant was collected and purified to obtain the target protein; the anti-Staphylococcus aureus activity of the protein was detected by a MIC assay. Finally, the codons of candidate sequences were optimized, the expression vector was reconstructed, the optimal transformers were obtained, and the high-density cultivation was performed in a 5 L fermenter. The final agent was determined by high protein yield and good activity (Figure 2).
as §1

A further series concerns S. aureus E48. The format is cell-based, Staphylococcus aureus. Here is the method: as §2, §1
Another series concerns S. aureus ATCC 25923. The format is cell-based, Staphylococcus aureus. On the procedure:
as §2, §1

A further series has as its system S. aureus ATCC 43300. Put plainly: Membrane permeability, PI staining by FACS. To be noted: 2× MIC, 10^8 CFU/mL, 37 °C. The format is cell-based, Staphylococcus aureus. On the procedure: Figure 8 In vitro antimicrobial analysis of PN7. (A): Time-kill curve of PN7, Plectasin, and vancomycin against S. aureus ATCC. All experiments were performed in triplicate. (B): The PAE of 1×, 2× and 4× MIC of PN7 and vancomycin against S. aureus ATCC 43300 (the MIC values of PN7 and vancomycin against S. aureus ATCC 43300 were 8 μg/mL and 1μg/mL, respectively). All experiments were performed in triplicate. (C): The morphological influence of PN7 on S. aureus ATCC 43300 was observed by SEM. (D,E): The effects of PN7 (D) and Plectasin (E)) on membrane permeability were analyzed by FACS. The logarithmic phase S. aureus ATCC 43300 cells (10^8 CFU/mL) were incubated with or without 2× MIC peptide solutions at 37 °C at different times. All experiments were performed in triplicate. Ple stands for the Plectasin treatment group, Van stands for the vancomycin treatment group, and CK stands for the untreated group. TEXT PRINTED IN THE PICTURE: (D) PN7: 34.4% (2×; 90min); 31.2% (2×; 75min); 30.4% (2×; 60min); 19.2% (2×; 45min); 16.7% (2×; 30min); 1.94% (2×; 15min) | (E) Ple: 32.0% (2×; 90min); 27.4% (2×; 75min); 25.2% (2×; 60min); 12.8% (2×; 45min); 12.0% (2×; 30min); 2.11% (2×; 15min) DOUBTS OF THE COPYIST ABOUT THIS PICTURE: Panels D and E: the picture prints no measure for the percentages, only labels such as "2×PN7-90min: 34.4%" / Panels D and E: "CK: 0.54%" is the untreated control, not a substance, and was left out
The fluorescent dye propidium iodide (PI; Solarbio, Beijing, China) was used to detect the effect of PN7 on the membrane permeability of Staphylococcus aureus. The test method refers to the descriptions in previous studies.
In general terms: In flow cytometry, cells or beads pass a laser one at a time.

Setting [2] is: microtiter broth dilution, MHB, 10^5 CFUs/mL, 16–18 h at 37 °C.

The structures appear in SMILES notation. In brackets after ≈: the same amount, converted by molar mass. Read-outs that look alike come from different tables or passages of the source. Bridge positions count the residues as written; N and C are the ends. Peptide text beside a SMILES is read from it. Some results are limits rather than exact numbers.

The MIC is the smallest concentration in the dilution series that meets the test's criterion for growth inhibition. Read a low MIC as inhibition by little substance. Regarding `CC[C@H](C)[C@@H]1NC(=O)[C@H](CO)NC(=O)[C@H](CCCCN)NC(=O)[C@@H]2CSSC[C@@H](C(=O)N[C@@H](Cc3ccc(O)cc3)C(=O)O)NC(=O)[C@H](CCCCN)NC(=O)[C@@H]3CSSC[C@H](NC(=O)[C@H](CCCNC(=N)N)NC(=O)CNC(=O)[C@H](CC(=O)O)NC(=O)[C@H](CC(=O)O)NC(=O)[C@H](CCC(=O)O)NC(=O)[C@H](Cc4ccc(O)cc4)NC(=O)[C@H](Cc4c[nH]c5ccccc45)NC(=O)[C@@H]4CCCN4C(=O)CNC(=O)[C@H](CC(N)=O)NC(=O)[C@@H](NC(=O)CNC(=O)[C@H](Cc4ccccc4)NC(=O)CN)CSSC[C@H](NC(=O)[C@H](Cc4ccc(O)cc4)NC(=O)CNC(=O)CNC(=O)[C@H](CCCCN)NC(=O)[C@H](Cc4ccc(O)cc4)NC(=O)CNC(=O)[C@H](CCCCN)NC1=O)C(=O)N[C@@H](C)C(=O)N[C@@H](CCCCN)C(=O)NCC(=O)NCC(=O)N[C@@H](Cc1ccccc1)C(=O)N[C@@H](C(C)C)C(=O)N3)C(=O)N[C@@H](Cc1c[nH]cn1)C(=O)N[C@@H](CC(N)=O)C(=O)N[C@@H](Cc1c[nH]cn1)C(=O)N2` [PN7] (H-GFGCNGPWYEDDGRCHNHCKSIKGYKGGYCAKGGFVCKCY-OH; disulfide 4-30, 15-37, 19-39 (inferred); N-terminus and C-terminus assumed), the “activity after incubation with simulated intestinal fluid (SIF)” value in [1] (1280 μg/mL PN7, 37 °C, then two-fold dilution, triplicate) is “abolished the activity”. Further, in series [1] (Figure 7E), the sensitivity to trypsin result is listed as “sensitive to trypsin”. Moreover, the MIC was 4 µg/mL (≈ 0.908 µM) with S. aureus CICC 10473; greater than 128 µg/mL against E. coli CVCC 1515; greater than 128 µg/mL in the series on E. coli O157; greater than 128 µg/mL against E. coli ATCC 25922; 4 µg/mL (≈ 0.908 µM) against S. aureus CVCC 546 (S. aureus 546, purified protein induced by shaking flasks); 1 µg/mL (≈ 0.227 µM) against S. aureus CVCC 546 (setting [2]). Also, the MIC in the series on S. aureus E48 (S. aureus E48, purified protein induced by shaking flasks) was determined as 4 µg/mL (≈ 0.908 µM); in the series with S. aureus E48 (setting [2]) it was 1 µg/mL (≈ 0.227 µM); in the series on S. aureus ATCC 25923 (S. aureus 25923, purified protein induced by shaking flasks), 16 µg/mL (≈ 3.63 µM); with S. aureus ATCC 25923 (setting [2]), 16 µg/mL (≈ 3.63 µM). Moreover, the “PI-staining percentage of cells” value is recorded as 16.7% with S. aureus ATCC 43300 (30 min), 30.4% in the series on S. aureus ATCC 43300 (60 min) and 34.4% with S. aureus ATCC 43300 (90 min).

The record behind these values is article PMC10451632, “Site Mutation Improves the Expression and Antimicrobial Properties of Fungal Defense” (Antibiotics, 2023).
